In PMC9120017, “Inhibition mechanism of the chloride channel TMEM16A by the pore blocker 1PBC” (Nature Communications, 2022):
Read-outs that look alike come from different tables or passages of the source.

Target: T1, mouse TMEM16A mutant T539A (Mus musculus, UniProt Q8BHY3, T539A)
T1 construct: expressed in transfected cells; host or cells: HEK293T
T1 sequence (Q8BHY3 1-960 T539A): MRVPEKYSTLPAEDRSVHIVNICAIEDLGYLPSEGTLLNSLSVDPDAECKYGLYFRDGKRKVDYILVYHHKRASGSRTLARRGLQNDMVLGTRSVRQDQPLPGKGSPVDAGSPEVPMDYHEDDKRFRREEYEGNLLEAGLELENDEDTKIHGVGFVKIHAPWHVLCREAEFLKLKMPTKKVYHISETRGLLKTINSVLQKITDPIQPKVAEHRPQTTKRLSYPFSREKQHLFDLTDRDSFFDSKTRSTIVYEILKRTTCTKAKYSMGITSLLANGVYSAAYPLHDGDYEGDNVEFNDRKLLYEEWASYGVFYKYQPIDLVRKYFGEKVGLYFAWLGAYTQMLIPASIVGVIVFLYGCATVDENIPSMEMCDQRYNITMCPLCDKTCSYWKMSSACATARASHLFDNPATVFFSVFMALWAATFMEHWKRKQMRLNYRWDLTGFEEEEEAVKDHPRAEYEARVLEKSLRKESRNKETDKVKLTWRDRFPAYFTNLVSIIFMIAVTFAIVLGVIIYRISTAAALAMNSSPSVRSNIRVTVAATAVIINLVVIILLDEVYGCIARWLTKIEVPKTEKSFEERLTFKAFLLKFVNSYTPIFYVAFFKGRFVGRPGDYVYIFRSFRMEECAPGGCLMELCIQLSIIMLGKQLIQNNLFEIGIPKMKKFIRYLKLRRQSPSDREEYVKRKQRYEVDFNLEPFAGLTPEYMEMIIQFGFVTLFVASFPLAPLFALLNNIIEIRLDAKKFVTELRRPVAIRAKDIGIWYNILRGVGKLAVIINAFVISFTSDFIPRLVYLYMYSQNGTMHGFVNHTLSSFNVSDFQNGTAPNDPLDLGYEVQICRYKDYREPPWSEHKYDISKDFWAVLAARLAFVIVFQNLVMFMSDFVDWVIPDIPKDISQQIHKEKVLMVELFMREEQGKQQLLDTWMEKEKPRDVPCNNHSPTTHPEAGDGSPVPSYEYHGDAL
Assay: Inside-out patch recording of 1PBC block, mutant T539A
Type: cell-based
Conditions: for remaining activity at 100 µM: 100 µM 1PBC
Procedure: HEK293T cells (ATCC CRL-1573) were maintained in Dulbecco’s modified Eagle’s medium (DMEM; Sigma-Aldrich) supplemented with 10 U ml^−1 penicillin, 0.1 mg ml^−1 streptomycin (Sigma-Aldrich), 2 mM L-glutamine (Sigma-Aldrich), and 10% FBS (Sigma-Aldrich) in a humidified atmosphere containing 5% CO2 at 37 °C. HEK293S GnTI^− cells (ATCC CRL-3022) were maintained in HyClone HyCell TransFx-H medium (GE Healthcare) supplemented with 10 U ml^−1 penicillin, 0.1 mg ml^−1 streptomycin, 4 mM L-glutamine, 0.15% poloxamer 188 (Sigma-Aldrich), and 1% FBS in an atmosphere containing 5% CO2 at 185 rpm at 37 °C. The ac splice variant of mouse TMEM16A (UniProt ID: Q8BHY3), mouse TMEM16B (UniProt ID: Q8CFW1), or mouse TMEM16F (UniProt ID: Q6P9J9) bearing a 3C cleavage site, a Venus YFP, a Myc tag, and a Streptavidin-binding peptide (SBP) downstream of the open reading frame in a modified pcDNA3.1 vector (Invitrogen) were used as described previously[21],[31]. Mutations were introduced using a modified QuikChange method[58] and were verified by sequencing.
HEK293T cells were transfected with 3–4 μg DNA per 6 cm Petri dish using the calcium phosphate co-precipitation method and were used within 24–96 h after transfection. Recordings were performed on inside-out patches excised from HEK293T cells expressing the construct of interest. Patch pipettes were pulled from borosilicate glass capillaries (O.D. 1.5 mm, I.D. 0.86 mm, Sutter Instrument) and were fire-polished with a microforge (Narishige) before use. Pipette resistance was typically 3–8 MΩ when filled with the recording solutions detailed below. Seal resistance was typically 4 GΩ or higher. Voltage-clamp recordings were made using Axopatch 200B, Digidata 1550, and Clampex 10.7 (Molecular Devices). Analog signals were filtered with the in-built 4-pole Bessel filter at 10 kHz and were digitized at 20 kHz. Solution exchange was achieved using a gravity-fed system through a theta glass pipette mounted on an ultra-fast piezo-driven stepper (Siskiyou). […] All recordings were performed at 20 °C.
A symmetrical ionic condition was used throughout. Stock solution with Ca^2+-EGTA contained 150 mM NaCl, 5.99 mM Ca(OH)2, 5 mM EGTA, and 10 mM HEPES at pH 7.40. Stock solution with EGTA contained 150 mM NaCl, 5 mM EGTA, and 10 mM HEPES at pH 7.40. Free Ca^2+ concentrations were adjusted by mixing the stock solutions at the required ratios calculated using the WEBMAXC program (http://web.stanford.edu/~cpatton/webmaxcS.htm). Patch pipettes were filled with the stock solution with Ca^2+-EGTA, which has a free Ca^2+ concentration of 1 mM. 1PBC (ChemBridge) stock was reconstituted in anhydrous DMSO (Sigma-Aldrich) at 100 mM and stored at −20 °C. Working solutions with 1PBC were prepared by serial dilution. Unless otherwise stated, experiments were performed at a saturating Ca^2+ concentration as shown in Supplementary Table 1 and the primary data were corrected for current rundown as described previously[21],[25].
Concentration-response relations, obtained from the ratio of the I-V plots before and after the application of the blocker, were fitted to the Hill equation,1 I/Imax=1/1+IC50/[blocker]^h where I/Imax is the normalized current responses, IC50 defines the concentration at which inhibition is at its half-maximum, and h is the Hill coefficient.

Which results are given for N#Cc1c(C(F)(F)F)cc(O)n2c1nc1ccccc12 [1PBC]?
IC50 (0 mV, 2 µM Ca2+): 14.9 µM; remaining activity at 3 µM (3 µM 1PBC, +80 mV, saturating Ca2+ (2 µM), read-out: I/Imax): 77.1%; remaining activity at 3 µM (3 µM 1PBC, -80 mV, saturating Ca2+ (2 µM), read-out: I/Imax): 91.4%; remaining activity at 10 µM (10 µM 1PBC, +80 mV, saturating Ca2+ (2 µM), read-out: I/Imax): 45.4%; remaining activity at 10 µM (10 µM 1PBC, -80 mV, saturating Ca2+ (2 µM), read-out: I/Imax): 71.2%; remaining activity at 30 µM (30 µM 1PBC, +80 mV, saturating Ca2+ (2 µM), read-out: I/Imax): 23.5%; remaining activity at 30 µM (30 µM 1PBC, -80 mV, saturating Ca2+ (2 µM), read-out: I/Imax): 49.4%; remaining activity at 100 µM (+80 mV, saturating Ca2+ (2 µM), read-out: I/Imax): 8.95%; remaining activity at 100 µM (-80 mV, saturating Ca2+ (2 µM), read-out: I/Imax): 25%; remaining activity at 3 µM (1PBC 3, 0 mV, read-out: fraction of unblocked current): 85.3%; remaining activity at 3 µM (1PBC 3, 20 mV, read-out: fraction of unblocked current): 83.3%; remaining activity at 3 µM (1PBC 3, 40 mV, read-out: fraction of unblocked current): 80.1%; remaining activity at 3 µM (1PBC 3, 60 mV, read-out: fraction of unblocked current): 78.3%; remaining activity at 3 µM (1PBC 3, 80 mV, read-out: fraction of unblocked current): 77.1%; remaining activity at 3 µM (1PBC 3, 100 mV, read-out: fraction of unblocked current): 77.2%; remaining activity at 3 µM (1PBC 3, 120 mV, read-out: fraction of unblocked current): 77.7%; remaining activity at 3 µM (1PBC 3, 140 mV, read-out: fraction of unblocked current): 79.8%; remaining activity at 3 µM (1PBC 3, -20 mV, read-out: fraction of unblocked current): 87.2%; remaining activity at 3 µM (1PBC 3, -40 mV, read-out: fraction of unblocked current): 88.4%; remaining activity at 3 µM (1PBC 3, -60 mV, read-out: fraction of unblocked current): 90%; remaining activity at 3 µM (1PBC 3, -80 mV, read-out: fraction of unblocked current): 91.4%; remaining activity at 3 µM (1PBC 3, -100 mV, read-out: fraction of unblocked current): 92.2%; remaining activity at 3 µM (1PBC 3, -120 mV, read-out: fraction of unblocked current): 93.2%; remaining activity at 3 µM (1PBC 3, -140 mV, read-out: fraction of unblocked current): 93.5%; remaining activity at 10 µM (1PBC 10, 0 mV, read-out: fraction of unblocked current): 56.5%; remaining activity at 10 µM (1PBC 10, 20 mV, read-out: fraction of unblocked current): 53.9%; remaining activity at 10 µM (1PBC 10, 40 mV, read-out: fraction of unblocked current): 50.2%; remaining activity at 10 µM (1PBC 10, 60 mV, read-out: fraction of unblocked current): 47.6%; remaining activity at 10 µM (1PBC 10, 80 mV, read-out: fraction of unblocked current): 45.4%; remaining activity at 10 µM (1PBC 10, 100 mV, read-out: fraction of unblocked current): 44.7%; remaining activity at 10 µM (1PBC 10, 120 mV, read-out: fraction of unblocked current): 45.3%; remaining activity at 10 µM (1PBC 10, 140 mV, read-out: fraction of unblocked current): 47%; remaining activity at 10 µM (1PBC 10, -20 mV, read-out: fraction of unblocked current): 59.1%; remaining activity at 10 µM (1PBC 10, -40 mV, read-out: fraction of unblocked current): 63.7%; remaining activity at 10 µM (1PBC 10, -60 mV, read-out: fraction of unblocked current): 67.6%; remaining activity at 10 µM (1PBC 10, -80 mV, read-out: fraction of unblocked current): 71.2%; remaining activity at 10 µM (1PBC 10, -100 mV, read-out: fraction of unblocked current): 73.9%; remaining activity at 10 µM (1PBC 10, -120 mV, read-out: fraction of unblocked current): 76.5%; remaining activity at 10 µM (1PBC 10, -140 mV, read-out: fraction of unblocked current): 78.6%; remaining activity at 30 µM (1PBC 30, 0 mV, read-out: fraction of unblocked current): 34.9%; remaining activity at 30 µM (1PBC 30, 20 mV, read-out: fraction of unblocked current): 31%; remaining activity at 30 µM (1PBC 30, 40 mV, read-out: fraction of unblocked current): 27.7%; remaining activity at 30 µM (1PBC 30, 60 mV, read-out: fraction of unblocked current): 25.4%; remaining activity at 30 µM (1PBC 30, 80 mV, read-out: fraction of unblocked current): 23.5%; remaining activity at 30 µM (1PBC 30, 100 mV, read-out: fraction of unblocked current): 22.5%; remaining activity at 30 µM (1PBC 30, 120 mV, read-out: fraction of unblocked current): 21.8%; remaining activity at 30 µM (1PBC 30, 140 mV, read-out: fraction of unblocked current): 22.4%; remaining activity at 30 µM (1PBC 30, -20 mV, read-out: fraction of unblocked current): 38.8%; remaining activity at 30 µM (1PBC 30, -40 mV, read-out: fraction of unblocked current): 42.4%
